The values below come from ChEMBL document CHEMBL5360546, “Identification and characterisation of the tegument-expressed aldehyde dehydrogenase SmALDH_312 of Schistosoma mansoni, a target of disulfiram” (Eur J Med Chem, 2023).

The source made the active and inactive calls. The rule behind the calls is not given here.

In experiment [1] the target is T1, Aldehyde dehydrogenase, mitochondrial (Homo sapiens) (UniProt P05091).
T1 sequence (whole entry): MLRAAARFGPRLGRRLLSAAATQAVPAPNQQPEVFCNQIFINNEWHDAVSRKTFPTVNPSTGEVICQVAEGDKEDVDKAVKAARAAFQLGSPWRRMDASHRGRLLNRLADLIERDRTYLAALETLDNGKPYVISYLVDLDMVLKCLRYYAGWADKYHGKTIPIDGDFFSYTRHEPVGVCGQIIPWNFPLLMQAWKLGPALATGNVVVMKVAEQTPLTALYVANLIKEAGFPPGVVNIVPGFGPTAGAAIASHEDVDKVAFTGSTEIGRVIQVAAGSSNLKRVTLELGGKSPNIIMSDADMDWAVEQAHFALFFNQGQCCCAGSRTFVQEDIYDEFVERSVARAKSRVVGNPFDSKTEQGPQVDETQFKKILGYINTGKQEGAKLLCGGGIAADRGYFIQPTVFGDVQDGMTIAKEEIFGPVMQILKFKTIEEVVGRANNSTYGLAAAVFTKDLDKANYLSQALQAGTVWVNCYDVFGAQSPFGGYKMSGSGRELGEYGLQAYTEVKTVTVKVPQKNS
Description: Inhibition of human ALDH2 at 100 uM in presence of NADPH.

Experiment [2] can be described thus: Inhibition of recombinant Schistosoma mansoni ALDH312 expressed in baculovirus Sf9 cells at 100 uM in presence of NADPH relative to control.
Experiment [3] is described as follows: Inhibition of recombinant Schistosoma mansoni ALDH312 expressed in baculovirus Sf9 cells at 50 uM in presence of NADPH relative to control.
The nature of experiment [4]: Inhibition of recombinant Schistosoma mansoni ALDH312 expressed in baculovirus Sf9 cells in presence of NADPH.
Experiment [5] has as its target T1, Aldehyde dehydrogenase, mitochondrial (Homo sapiens). Description: Inhibition of human ALDH2 at 100 uM in presence of NADPH relative to control.
In experiment [6] the test system is Schistosoma mansoni. Nature of the experiment: Induction of morphological changes in male Schistosoma mansoni assessed as formation of ruptures at 25 uM by confocal laser scanning microscopy analysis. The format is functional, organism-based.
The subject of experiment [7] is Schistosoma mansoni. Nature of the experiment: Induction of morphological changes in female Schistosoma mansoni assessed as formation of blebs at 25 uM by confocal laser scanning microscopy analysis. In kind it is functional, organism-based.
Experiment [8] relates to Schistosoma mansoni. Description: Induction of morphological changes in Schistosoma mansoni couple assessed as detachment of tegument at 10 to 25 uM by confocal laser scanning microscopy analysis. In kind it is functional, organism-based. The following applies: dose 10-25 µM.
Experiment [9] relates to Schistosoma mansoni. Nature of the experiment: Antischistosomal activity against Schistosoma mansoni couple assessed as reduction worm motility at 10 to 200 uM measured at day 3. The conditions noted are these: dose 10-200 µM, time 3.0 day. In kind it is functional, organism-based.
The test system of experiment [10] is Schistosoma mansoni. Description: Downregulation of Smnanos1 transcript level in Schistosoma mansoni male at 10 to 25 uM measured after 72 hrs by qRT-PCR analysis. The format is functional. The conditions noted are these: dose 10-25 µM. A general note: Quantitative PCR measures a nucleic acid by following its amplification.
In experiment [11] the test system is Schistosoma mansoni. Nature of the experiment: Induction of morphological changes in Schistosoma mansoni couple assessed as effect on gonads internal structure at 10 uM by confocal laser scanning microscopy analysis. The format is functional, organism-based.
In experiment [12] the test system is Schistosoma mansoni. Description: Downregulation of Smaldh312 level in Schistosoma mansoni male at 10 uM measured after 72 hrs by qRT-PCR analysis. The format is functional.
The test system of experiment [13] is Schistosoma mansoni. Description: Induction of morphological changes in Schistosoma mansoni couple assessed as swelling of tegument at 10 to 25 uM by confocal laser scanning microscopy analysis. The format is functional, organism-based. The following applies: dose 10-25 µM.
Experiment [14] deals with Schistosoma mansoni. Description: Antischistosomal activity against Schistosoma mansoni couple assessed as reduction in couple attachment at 10 uM measured at day 3 relative to control. In kind it is functional. Details: scale not given: the % may be the effect or the level left. The following applies: time 3 day.
In experiment [15] the test system is Schistosoma mansoni. Description: Antischistosomal activity against Schistosoma mansoni couple assessed as decrease in couple attachment at 25 uM measured upto 3 days. The format is functional, organism-based. The following applies: time <= 3.0 day.
In experiment [16] the test system is Schistosoma mansoni. Description: Induction of morphological changes in male Schistosoma mansoni assessed as degeneration of spermatogonia at 25 uM by scanning electron microscopy analysis. In kind it is functional, organism-based.
The subject of experiment [17] is Schistosoma mansoni. Description: Antischistosomal activity against Schistosoma mansoni couple assessed as decrease in total number of eggs measured after 72 hrs. The format is functional, organism-based. The following applies: dose 1-200 µM.
In experiment [18] the test system is Schistosoma mansoni. Nature of the experiment: Antischistosomal activity against Schistosoma mansoni couple assessed as couple separation at 1 uM measured after 24 to 72 hrs. The format is functional, organism-based. The following applies: time 24-72 hrs.
Experiment [19] deals with Schistosoma mansoni. Description: Antischistosomal activity against Schistosoma mansoni couple assessed as worm motility at 1 uM measured after 72 hrs. The format is functional, organism-based.
Experiment [20] relates to Schistosoma mansoni. Description: Induction of morphological changes in Schistosoma mansoni couple assessed as tubercles rupture at 10 to 25 uM by confocal laser scanning microscopy analysis. The format is functional, organism-based. The conditions noted are these: dose 10-25 µM.
Experiment [21] deals with Schistosoma mansoni. Nature of the experiment: Induction of morphological changes in female Schistosoma mansoni assessed as degeneration of oocytes at 25 uM by scanning electron microscopy analysis. In kind it is functional, organism-based.
Experiment [22] concerns Schistosoma mansoni. Nature of the experiment: Induction of morphological changes in male Schistosoma mansoni assessed as formation of blebs at 25 uM by confocal laser scanning microscopy analysis. The format is functional, organism-based.
Experiment [23] relates to Schistosoma mansoni. Description: Antischistosomal activity against Schistosoma mansoni couple assessed as couple separation at 25 uM measured at day 1 relative to control. In kind it is functional. The conditions noted are these: time 1 day.
For experiment [24], the system named is Schistosoma mansoni. Nature of the experiment: Induction of morphological changes in Schistosoma mansoni couple assessed as effect on gonads tegument at 10 uM by confocal laser scanning microscopy analysis. The format is functional, organism-based.
In experiment [25] the test system is Schistosoma mansoni. Description: Inhibition of cell proliferation in Schistosoma mansoni couple assessed as reduction in EdU positive number measured after 3 days by Hoechst 33342 staining based analysis. In kind it is functional. The conditions noted are these: dose 10-25 µM, time 3.0 day.
For experiment [26], the system named is Schistosoma mansoni. Nature of the experiment: Induction of morphological changes in Schistosoma mansoni couple assessed as loss of structural integrity in reproductive organs at 25 uM by scanning electron microscopy analysis. In kind it is functional, organism-based.
Experiment [27] has as its system Schistosoma mansoni. Description: Antischistosomal activity against Schistosoma mansoni larva assessed as lethality at 500 nM measured after 72 hrs by Trypan blue staining based analysis. The format is functional, organism-based.
Experiment [28] deals with Schistosoma mansoni. Nature of the experiment: Upregulation of Smnanos2 transcript level in Schistosoma mansoni female at 10 uM measured after 72 hrs by qRT-PCR analysis. The format is functional.
Experiment [29] relates to Schistosoma mansoni. Nature of the experiment: Induction of morphological changes in female Schistosoma mansoni assessed as formation of ruptures at 25 uM by confocal laser scanning microscopy analysis. In kind it is functional, organism-based.
Experiment [30] has as its system Schistosoma mansoni. Description: Downregulation of Smnanos1 transcript level in Schistosoma mansoni female at 10 to 25 uM measured after 72 hrs by qRT-PCR analysis. In kind it is functional. The following applies: dose 10-25 µM.
Experiment [31] has as its system Schistosoma mansoni. Nature of the experiment: Upregulation of Smnanos2 transcript level in Schistosoma mansoni male at 10 uM measured after 72 hrs by qRT-PCR analysis. The format is functional.
Experiment [32] deals with Schistosoma mansoni. Nature of the experiment: Antischistosomal activity against Schistosoma mansoni couple assessed as couple separation at 100 uM measured at day 1 relative to control. In kind it is functional. The following applies: time 1 day.
The test system of experiment [33] is Schistosoma mansoni. Description: Induction of morphological changes in Schistosoma mansoni couple assessed as formation of blebs at 10 to 25 uM by confocal laser scanning microscopy analysis. The format is functional, organism-based. The following applies: dose 10-25 µM.

The inhibition is the share of the control response that was lost under treatment. By IC50 is commonly meant the concentration that inhibits the measured activity by half. Turning to `O=C(Nc1ccc(C(F)(F)F)c(C(F)(F)F)c1)c1cc(Cl)ccc1O`, the inhibition result in [1] is “inactive”. Also, the inhibition in [2] and in [3] was 100% throughout. In addition, the IC50 in experiment [4] is 7.5 µM.
Take `CN1CCC(NCc2cccc(-c3ccc(S(=O)(=O)NCc4ccccc4)cc3)c2)CC1`: the inhibition entry in experiment [1] was “inactive”. Moreover, the inhibition in experiment [2] is 80.4%. Also, the IC50 in experiment [4] stood at 21.8 µM.
As to `CC(C)=CCC/C(C)=C\CNCCNC1C2CC3CC(C2)CC1C3` (stereo not given), the inhibition result in [1] was “Active”. Besides, the inhibition in experiment [2] came out at 100%. In experiment [4], the IC50 is 12.5 µM.
As to `CCN(CC)C(=S)SSC(=S)N(CC)CC` [DISULFIRAM], the inhibition was 99% in experiment [5], 41.2% in experiment [2] and “Dose-Dependent Effect” in [25]. For the same molecule, the result in [6], in experiment [7], in [8], in experiment [9], in experiment [10] and in [12] was Active. The result in [13], in experiment [15], in experiment [16], in experiment [20], in experiment [21] and in experiment [22] was Active. The result in experiment [26], in experiment [27], in experiment [29], in [30], in experiment [31] and in experiment [33] was Active. Further, the outcome in [11], in experiment [18], in experiment [19], in experiment [24] and in experiment [28] was inactive. The Activity in [14] is 50%; in experiment [17], “Dose-Dependent Effect”; in experiment [23] it was 50%; in experiment [32], 100%.
